Test results reported in patent EP4678638A1, “NEW E3 UBIQUITIN LIGASE LIGAND, PROTEIN DEGRADATION AGENT AND USE THEREOF” (priority 2023, dated 2024).
One block for each compound: values may come before it.

Columns and labels:
[1] = system: CCRF-CEM; experiment: CCK-8 proliferation, CCRF-CEM; assay type: cell-based, Human; conditions: Homo sapiens, CCRF-CEM; CCK-8; 96 hours; read-out: Inhibitory activity (IC50) on tumor cell proliferation, CCRF-CEM
Outline: (§1)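 CCK-8 viability readout; IC50 from growth-inhibition curve fitting. Cells plated, dosed 24h later with a 10-point series, top 10µM, 5-fold steps. Culture at 37°C, 5% CO2.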

[2] = system: Jurkat; experiment: CCK-8 proliferation, Jurkat; assay type: cell-based, Human; conditions: Homo sapiens, Jurkat; CCK-8; 96 hours; read-out: Inhibitory activity (IC50) on tumor cell proliferation, Jurkat
Outline: as §1

[3] = system: SW620; experiment: CCK-8 proliferation, SW620; assay type: cell-based; conditions: Homo sapiens, SW-620; CCK-8; 96 hours; read-out: Inhibitory activity (IC50) on tumor cell proliferation, SW620
Outline: as §1

[4] = system: CFPAC-1; experiment: CCK-8 proliferation, CFPAC-1; assay type: cell-based; conditions: Homo sapiens, 72 or 96 hours, read-out: Inhibitory activity (IC50) on tumor cell proliferation, CFPAC-1
Description: (§2) The tumor cells used herein were cultured in a cell culture medium listed in table A1 at 37°C in an incubator with 5% CO2. Prior to experimentation, all cell lines used were correctly identified by STR profiling, and tested negative for mycoplasma contamination using a mycoplasma detection kit through routine screenings. Table A1. Tumor cells and cell culture medium used in the present disclosure
(§3) IC50 values of the compounds of the present disclosure (including the compounds in Table 1, and compounds of examples) were measured using the Meilun Cell Counting Kit-8 kit from Dalian Meilun Biotech Co., Ltd. Assay details are as follows: tumor cells were seeded in a 96-well plate at a density listed in Table A2. After 24h, 100 µL of the inoculated cells were treated with 0.5µL of the compounds of the present disclosure (including the compounds in Tables 1 and 2, and compounds of examples) at 10 different successively decreasing concentrations (starting at the highest concentration of 10µM; 5-fold serial dilutions). After the cells were treated with the compounds of the present disclosure for a period of time, the cell viability detection reagent was added to the culture medium for cell viability assessment according to the instructions provided with the CCK-8 kit. […] The growth inhibition of the compounds of the present disclosure on cells was plotted by Prism Graphpad software, and the IC50 values of the compounds of the present disclosure were calculated therefrom. […] Seeding protocol and treatment time for tumor cells

[5] = system: MGC-803; experiment: CCK-8 proliferation, MGC-803 (heads: MGC80-3, MGC803); assay type: cell-based, Human; conditions: Homo sapiens, MGC-803; CCK-8; 72 hours; read-out: Inhibitory activity (IC50) on tumor cell proliferation, MGC803
Outline: as §1

[6] = system: LNcap; experiment: CCK-8 proliferation, LNcap; assay type: cell-based; conditions: Homo sapiens, LNCaP; CCK-8; 96 hours; read-out: Inhibitory activity (IC50) on tumor cell proliferation, Lncap
Outline: as §1

[7] = system: MM.1R; experiment: CCK-8 proliferation, MM.1R; assay type: cell-based; conditions: CCK-8, 72 hours, read-out: Inhibitory activity (IC50) on tumor cell proliferation, MM.1R
Outline: as §1

[8] = system: K562; experiment: CCK-8 proliferation, K562; assay type: cell-based; conditions: Homo sapiens, 72 or 96 hours, read-out: Inhibitory activity (IC50) on tumor cell proliferation, K562
Description: as §2, §3

[9] = target: T1, human Cereblon WT GST-tagged protein (Homo sapiens, UniProt Q96SW2); experiment: CRBN binding, HTRF (CEREBLON BINDING kit); conditions: HTRF
T1 construct: purchased CISBIO 64BDCRBNPEH
T1 sequence (Q96SW2 whole entry): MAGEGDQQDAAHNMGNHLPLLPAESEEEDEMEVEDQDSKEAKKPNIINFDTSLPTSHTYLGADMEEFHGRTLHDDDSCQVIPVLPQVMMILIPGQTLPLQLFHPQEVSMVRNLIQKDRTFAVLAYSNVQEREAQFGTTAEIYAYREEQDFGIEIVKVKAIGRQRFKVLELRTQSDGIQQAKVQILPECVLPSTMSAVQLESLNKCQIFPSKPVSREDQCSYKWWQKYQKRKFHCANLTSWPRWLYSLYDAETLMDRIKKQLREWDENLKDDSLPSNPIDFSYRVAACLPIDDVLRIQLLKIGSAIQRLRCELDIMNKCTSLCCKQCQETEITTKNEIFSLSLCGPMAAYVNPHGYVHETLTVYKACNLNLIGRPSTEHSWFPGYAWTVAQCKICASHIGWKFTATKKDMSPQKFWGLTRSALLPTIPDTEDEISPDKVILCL
Outline: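 Competitive HTRF: GST-tagged human WT Cereblon mixed with compound, Thalidomide-Re tracer and GST Eu antibody, incubated 3 h at room temperature. Signals read at 620 and 665 nm.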

[10] = system: TRK; experiment: Western blot degradation of TRK / NTRK (SK-N-AS Cell); assay type: cell-based; conditions: Table D14
Description: (§4) Conventional Western blot assay was performed to evaluate the effects of the compounds of the present disclosure on the expression of target proteins in cells.
(§5) (1) Cell Seeding and Protein Harvesting: The selected cells were processed according to the cell seeding procedure and protein harvesting procedure in Table III-2. Table III-2 Cell Seeding and Protein Harvesting Procedures
(§6) (2) To the collected supernatant, 5X SDS sample loading buffer was added, followed by denaturation at 95°C for 5 minutes. The denatured samples were then separated by SDS-PAGE electrophoresis on a polyacrylamide gel. Proteins were transferred to a nitrocellulose membrane (0.45 µm NC membrane), blocked with blocking buffer at room temperature for 1 hour, and subjected to antibody incubation and development procedures according to the antibody manufacturer's instructions (Cell Signaling Technology).
(§7) Half-Maximal Degradation Concentration value (the drug concentration required for degrading proteins by 50%, abbreviated as DC50) reads method: comparing the grayscale values of Western blot bands from drug-treated samples with those from blank DMSO-treated controls, and identifying the drug concentration range at which the grayscale value is half that of the DMSO-treated control bands.
(§8) DC50 values can be calculated using ImageJ software to measure grayscale values of Western blot bands from drug-treated samples. The concentration-response curve is fitted to estimate the drug concentration corresponding to half the grayscale value.
(§9) Target protein remaining (%) refers to the percentage of target protein remaining in hPBMC cells after treatment with protein degrader compounds.
(§10) Calculation method for target protein remaining (%): Use ImageJ software to measure grayscale values of Western blot bands from drug (protein degrader)-treated samples. The grayscale value of drug-treated bands is divided by that of internal control protein bands, and the resulting quotient is normalized to obtain the relative percentage of remaining target protein after protein degrader treatment. […]

[11] = target: T2, BCR-ABL (Homo sapiens, UniProt P00519+P11274+Q96SW2, E27K); experiment: Western blot degradation of BCR-ABL (K562 Cell); assay type: cell-based; conditions: Table D15
T2 construct: evaluate the effects of the compounds of the present disclosure on the expression of target proteins in cells; endogenous in cells; host or cells: K562
T2 sequence (P11274+P00519 fused, stated change not applied): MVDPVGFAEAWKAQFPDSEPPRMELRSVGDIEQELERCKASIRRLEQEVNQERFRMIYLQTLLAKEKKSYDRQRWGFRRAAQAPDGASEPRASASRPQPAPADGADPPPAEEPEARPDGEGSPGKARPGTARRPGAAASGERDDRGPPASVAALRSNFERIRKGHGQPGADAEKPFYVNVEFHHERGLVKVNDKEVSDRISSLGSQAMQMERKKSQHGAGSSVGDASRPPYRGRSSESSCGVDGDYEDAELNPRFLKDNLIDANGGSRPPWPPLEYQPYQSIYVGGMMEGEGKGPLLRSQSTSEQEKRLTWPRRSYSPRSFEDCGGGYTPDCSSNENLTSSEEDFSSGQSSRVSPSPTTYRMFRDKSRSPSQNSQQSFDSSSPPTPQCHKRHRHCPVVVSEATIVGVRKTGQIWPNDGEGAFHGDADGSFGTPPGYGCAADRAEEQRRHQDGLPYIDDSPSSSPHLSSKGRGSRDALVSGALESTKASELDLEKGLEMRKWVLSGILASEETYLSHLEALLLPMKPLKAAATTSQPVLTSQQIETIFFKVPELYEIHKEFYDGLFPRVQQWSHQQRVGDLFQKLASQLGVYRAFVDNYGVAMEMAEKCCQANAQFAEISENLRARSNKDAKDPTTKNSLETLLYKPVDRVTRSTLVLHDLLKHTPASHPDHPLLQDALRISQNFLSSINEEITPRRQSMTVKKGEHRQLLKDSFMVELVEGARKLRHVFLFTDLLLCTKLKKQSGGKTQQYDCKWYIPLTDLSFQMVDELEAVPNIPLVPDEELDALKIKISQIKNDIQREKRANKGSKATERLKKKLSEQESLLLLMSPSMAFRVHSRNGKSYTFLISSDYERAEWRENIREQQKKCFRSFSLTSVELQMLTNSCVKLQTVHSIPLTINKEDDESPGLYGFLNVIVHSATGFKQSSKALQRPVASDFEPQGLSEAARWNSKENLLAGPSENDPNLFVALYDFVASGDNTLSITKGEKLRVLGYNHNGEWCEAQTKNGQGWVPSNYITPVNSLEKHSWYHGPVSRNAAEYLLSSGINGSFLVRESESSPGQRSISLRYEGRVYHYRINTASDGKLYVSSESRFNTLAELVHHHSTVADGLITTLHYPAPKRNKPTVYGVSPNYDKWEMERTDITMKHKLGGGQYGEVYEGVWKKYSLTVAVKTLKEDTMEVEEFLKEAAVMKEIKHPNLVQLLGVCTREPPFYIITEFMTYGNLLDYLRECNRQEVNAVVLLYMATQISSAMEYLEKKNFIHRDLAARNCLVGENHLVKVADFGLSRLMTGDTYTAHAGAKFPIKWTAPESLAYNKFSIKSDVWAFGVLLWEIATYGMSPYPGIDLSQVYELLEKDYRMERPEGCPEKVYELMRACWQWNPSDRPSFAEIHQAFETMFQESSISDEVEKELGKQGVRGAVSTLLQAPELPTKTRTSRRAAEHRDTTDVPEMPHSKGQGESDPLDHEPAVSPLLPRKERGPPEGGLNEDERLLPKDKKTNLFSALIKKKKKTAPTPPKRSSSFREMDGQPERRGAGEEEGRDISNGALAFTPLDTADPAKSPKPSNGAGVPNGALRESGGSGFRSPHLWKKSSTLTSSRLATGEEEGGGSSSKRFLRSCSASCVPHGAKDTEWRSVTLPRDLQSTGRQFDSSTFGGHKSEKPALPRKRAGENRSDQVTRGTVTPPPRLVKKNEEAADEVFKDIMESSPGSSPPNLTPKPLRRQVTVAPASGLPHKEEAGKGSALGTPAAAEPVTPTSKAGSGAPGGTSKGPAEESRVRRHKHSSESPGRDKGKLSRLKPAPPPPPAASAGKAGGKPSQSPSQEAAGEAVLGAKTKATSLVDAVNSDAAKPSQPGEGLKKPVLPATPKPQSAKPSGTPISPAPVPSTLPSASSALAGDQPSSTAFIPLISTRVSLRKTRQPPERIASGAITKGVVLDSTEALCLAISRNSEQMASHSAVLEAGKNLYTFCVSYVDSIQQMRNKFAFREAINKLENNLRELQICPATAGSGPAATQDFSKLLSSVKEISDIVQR
T2 sequence (Q16531 whole entry, stated change not applied, further chain): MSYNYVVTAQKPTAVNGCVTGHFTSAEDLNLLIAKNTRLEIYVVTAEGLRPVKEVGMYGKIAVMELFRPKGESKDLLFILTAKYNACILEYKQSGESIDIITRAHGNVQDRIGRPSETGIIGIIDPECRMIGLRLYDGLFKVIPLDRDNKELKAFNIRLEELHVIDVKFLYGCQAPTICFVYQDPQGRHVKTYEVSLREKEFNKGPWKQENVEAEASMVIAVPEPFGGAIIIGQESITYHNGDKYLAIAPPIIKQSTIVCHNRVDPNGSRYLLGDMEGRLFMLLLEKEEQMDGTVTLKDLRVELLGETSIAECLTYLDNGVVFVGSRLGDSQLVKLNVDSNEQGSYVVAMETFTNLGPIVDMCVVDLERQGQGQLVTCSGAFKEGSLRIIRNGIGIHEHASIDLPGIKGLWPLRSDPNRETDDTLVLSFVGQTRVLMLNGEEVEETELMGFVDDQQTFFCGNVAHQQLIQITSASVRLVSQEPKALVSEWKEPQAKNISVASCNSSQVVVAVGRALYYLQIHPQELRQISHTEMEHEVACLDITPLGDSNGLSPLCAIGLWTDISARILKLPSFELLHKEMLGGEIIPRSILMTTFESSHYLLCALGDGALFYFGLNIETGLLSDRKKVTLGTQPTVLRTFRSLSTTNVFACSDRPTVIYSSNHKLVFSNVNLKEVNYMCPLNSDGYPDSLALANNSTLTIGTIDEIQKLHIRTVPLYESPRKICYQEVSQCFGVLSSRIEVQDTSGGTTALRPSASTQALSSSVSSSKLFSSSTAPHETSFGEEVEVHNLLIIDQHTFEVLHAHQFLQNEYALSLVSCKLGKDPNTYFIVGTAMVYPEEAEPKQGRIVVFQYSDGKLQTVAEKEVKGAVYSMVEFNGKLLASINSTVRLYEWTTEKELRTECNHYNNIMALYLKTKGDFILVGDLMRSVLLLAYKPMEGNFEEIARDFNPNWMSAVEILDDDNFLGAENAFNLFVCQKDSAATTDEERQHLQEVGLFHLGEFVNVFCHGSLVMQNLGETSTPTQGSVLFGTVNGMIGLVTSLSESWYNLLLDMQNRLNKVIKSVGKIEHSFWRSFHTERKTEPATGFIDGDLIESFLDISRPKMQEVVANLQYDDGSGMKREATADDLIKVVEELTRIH
T2 sequence (Q96SW2 whole entry, stated change not applied): as the sequence (Q96SW2 whole entry) above
Description: as §4, §5, §6, §7, §8, §9, §10

[12] = target: T3, ER (Homo sapiens, UniProt P03372); experiment: Western blot degradation of ER (MCF-7 Cell); assay type: cell-based; conditions: Table D12
T3 construct: evaluate the effects of the compounds of the present disclosure on the expression of target proteins in cells; endogenous in cells; host or cells: MCF-7
T3 sequence (P03372 1-595): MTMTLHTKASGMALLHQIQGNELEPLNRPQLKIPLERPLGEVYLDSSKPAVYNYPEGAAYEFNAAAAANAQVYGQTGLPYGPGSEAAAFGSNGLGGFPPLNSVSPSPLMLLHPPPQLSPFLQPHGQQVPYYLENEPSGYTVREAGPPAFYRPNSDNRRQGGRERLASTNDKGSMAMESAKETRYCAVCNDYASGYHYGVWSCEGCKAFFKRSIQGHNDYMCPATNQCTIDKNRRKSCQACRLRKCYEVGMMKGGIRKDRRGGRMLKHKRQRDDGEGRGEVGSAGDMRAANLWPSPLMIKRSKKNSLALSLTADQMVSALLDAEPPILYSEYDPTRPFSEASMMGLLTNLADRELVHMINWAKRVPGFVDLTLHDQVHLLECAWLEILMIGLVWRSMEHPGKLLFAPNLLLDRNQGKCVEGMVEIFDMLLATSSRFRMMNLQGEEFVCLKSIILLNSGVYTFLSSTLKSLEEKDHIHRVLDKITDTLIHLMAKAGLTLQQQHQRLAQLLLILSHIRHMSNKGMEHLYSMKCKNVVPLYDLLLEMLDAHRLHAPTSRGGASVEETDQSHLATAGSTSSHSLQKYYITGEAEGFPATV
Description: as §4, §5, §6, §7, §8, §9
Calculation method for target protein remaining (%): Use ImageJ software to measure grayscale values of Western blot bands from drug (protein degrader)-treated samples. The grayscale value of drug-treated bands is divided by that of internal control protein bands, and the resulting quotient is normalized to obtain the relative percentage of remaining target protein after protein degrader treatment.
Target protein degradation rate (%) = 100% - target protein remaining (%).

[13] = system: H2228; experiment: CCK-8 proliferation, NCI-H2228 (H2228); assay type: cell-based; conditions: Homo sapiens, NCI-H2228; CCK-8; 96 hours; read-out: Inhibitory activity (IC50) on tumor cell proliferation, H2228
Outline: as §1

[14] = system: H1975; experiment: CCK-8 proliferation, NCI-H1975 (H1975); assay type: cell-based, Human; conditions: Homo sapiens, NCI-H1975; CCK-8; 96 hours; read-out: Inhibitory activity (IC50) on tumor cell proliferation, H1975
Outline: as §1

[15] = system: PC-9; experiment: CCK-8 proliferation, PC-9; assay type: cell-based, Human; conditions: Homo sapiens, PC-9; CCK-8; 96 hours; read-out: Inhibitory activity (IC50) on tumor cell proliferation, PC-9
Outline: as §1

[16] = system: TMD8; experiment: CCK-8 proliferation, TMD8; assay type: cell-based; conditions: Homo sapiens, TMD8; CCK-8; 72 hours; read-out: Inhibitory activity (IC50) on tumor cell proliferation, TMD8
Outline: as §1

Structure (SMILES): Cc1nc(Nc2ncc(C(=O)Nc3c(C)cccc3Cl)s2)cc(N2CCN(CCO)CC2)n1 [Dasatinib, reference compound]
IC50 [1]: > 10000 nM
IC50 [2]: 1000 to 5000 nM
IC50 [3]: 1000 to 5000 nM
IC50 [4]: 100 to 500 nM
IC50 [5]: 5000 to 10000 nM
IC50 [6]: 5000 to 10000 nM

Structure (SMILES): CN(Cc1ccc(C2CCC(=O)NC2=O)cc1)C1CCN(c2ccc(C(=O)Nc3n[nH]c4ccc(Cc5cc(F)cc(F)c5)cc34)c(NC3CCOCC3)c2)CC1 (stereo not drawn) [GT-03964, N-(5-(3,5-difluorobenzyl)-1H-indazol-3-yl)-4-(4-((4-(2,6-dioxopiperidin-3-yl)benzyl)(methyl)amino)piperidin-1-yl)-2-((tetrahydro-2H-pyran-4-yl)amino)benzamide]
Degradation of substrate protein TRK (substrate protein remaining %) [10]: A (A is defined as 0% ≤ substrate protein remaining % ≤ 80%)

Structure (SMILES): CN(Cc1ccc(C2CCC(=O)NC2=O)c(F)c1)C1CCN(c2ccc(C(=O)Nc3n[nH]c4ccc(Cc5cc(F)cc(F)c5)cc34)c(NC3CCOCC3)c2)CC1 (stereo not drawn) [GT-03965, N-(5-(3,5-difluorobenzyl)-1H-indazol-3-yl)-4-(4-((4-(2,6-dioxopiperidin-3-yl)-3-fluorobenzyl)(methyl)amino)piperidin-1-yl)-2-((tetrahydro-2H-pyran-4-yl)amino)benzamide]
Degradation of substrate protein TRK (substrate protein remaining %) [10]: A (A is defined as 0% ≤ substrate protein remaining % ≤ 80%)

Structure (SMILES): O=C1CCC(c2ccc(CN3CCC(N4CCN(c5ncc(C(=O)Nc6ccc(OC(F)(F)Cl)cc6)cc5-c5cc[nH]n5)CC4)CC3)cc2)C(=O)N1 (stereo not drawn) [GT-04058, N-(4-(chlorodifluoromethoxy)phenyl)-6-(4-(1-(4-(2,6-dioxopiperidin-3-yl)benzyl)piperidin-4-yl)piperazin-1-yl)-5-(1H-pyrazol-3-yl)nicotinamide]
Degradation of substrate protein BCR-ABL (substrate protein remaining %) [11]: A (A is defined as 0% ≤ substrate protein remaining % ≤ 80%)

Structure (SMILES): O=C1CCC(c2ccc(CN3CCN(C4CCN(c5ccc([C@@H]6c7ccc(O)cc7CC[C@@H]6c6ccccc6)cc5)CC4)CC3)cc2)C(=O)N1 (stereo partly drawn) [GT-04684, 3-(4-((4-(1-(4-((1R,2S)-6-hydroxy-2-phenyl-1,2,3,4-tetrahydronaphthalen-1-yl)phenyl)piperidin-4-yl)piperazin-1-yl)methyl)phenyl)piperidine-2,6-dione]
IC50 ([9]; Table II-1, CRBN binding): 1000 to 1900 nM
Degradation of substrate protein ER (substrate protein remaining %) [12]: A (A is defined as 0% ≤ substrate protein remaining % ≤ 80%)

Further lines, with some results ahead:

IC50 [7]: 500 to 1000 nM
IC50 [8]: 100 to 500 nM
IC50 [3]: 500 to 1000 nM
Structure (SMILES): NC(=O)c1ccc(N2CCC(N3CCN(Cc4ccc(C5CCC(=O)NC5=O)cc4)CC3)CC2)nc1-c1ccc(Oc2ccccc2)cc1 (stereo not drawn) [GT-03753, 6-(4-(4-(4-(2,6-dioxopiperidin-3-yl)benzyl)piperazin-1-yl)piperidin-1-yl)-2-(4-phenoxyphenyl)nicotinamide]

IC50 [7]: 100 to 500 nM
IC50 [8]: 100 to 500 nM
IC50 [3]: 100 to 500 nM
Structure (SMILES): NC(=O)c1ccc(N2CCC(N3CCN(Cc4ccc(C5CCC(=O)NC5=O)c(F)c4)CC3)CC2)nc1-c1ccc(Oc2ccccc2)cc1 (stereo not drawn) [GT-03754, 6-(4-(4-(4-(2,6-dioxopiperidin-3-yl)-3-fluorobenzyl)piperazin-1-yl)piperidin-1-yl)-2-(4-phenoxyphenyl)nicotinamide]

inhibition at 0.5 µM ([9]; Table II-2, CRBN binding screening, at 0.5µM, read-out: Inhibition rate (%) at 0.5µM): 60 to 80%
inhibition at 2 µM ([9]; Table II-2, CRBN binding screening, at 2 µM, read-out: Inhibition rate (%) at 2 µM): 80 to 100%
Structure (SMILES): CN(Cc1ccc(C2CCC(=O)NC2=O)cc1)C1CCN(c2cccc(-c3cnc4ccc(N5CCC[C@@H]5c5cccc(F)c5)nn34)n2)CC1 (stereo partly drawn) [GT-03898, 3-(4-(((1-(6-(6-((R)-2-(3-fluorophenyl)pyrrolidin-1-yl)imidazo[1,2-b]pyridazin-3-yl)pyridin-2-yl)piperidin-4-yl)(methyl)amino)methyl)phenyl)piperidine-2,6-dione]
Degradation of substrate protein TRK (substrate protein remaining %) [10]: A (A is defined as 0% ≤ substrate protein remaining % ≤ 80%)

IC50 [1]: 100 to 500 nM
IC50 [2]: 50 to 100 nM
IC50 [3]: 100 to 500 nM
IC50 [5]: 100 to 500 nM
IC50 [6]: 100 to 500 nM
Structure (SMILES): Cc1ccc(C(=O)Nc2ccc(CN3CCN(Cc4ccc(C5CCC(=O)NC5=O)cc4)CC3)c(C(F)(F)F)c2)cc1C#Cc1cnc2cccnn12 (stereo not drawn) [GT-03936]
IC50 [4]: 100 to 500 nM

IC50 [13]: > 10 µM
IC50 [14]: > 10 µM
IC50 [15]: > 10 µM
IC50 [7]: > 10000 nM
IC50 [8]: > 10000 nM
IC50 [3]: > 10000 nM
Structure (SMILES): C=CC(=O)N1CCC(c2ccc(C(N)=O)c(-c3ccc(Oc4ccccc4)cc3)n2)CC1 [Orelabrutinib, reference compound]
IC50 [16]: 5 to 10 µM
